Test results published in PubChem BioAssay (NCI).
“And” between values parts separate entries of the source, which are not always exact repeats. Identical values can stand only once.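 Test compounds were applied to cells in 96-well plates for 48 hours at 5 doses. Here, GI50 denotes the concentration required for 50% inhibition of growth. TGI is the concentration that stops growth completely.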

Columns and labels:
Assay in all cases: NCI-60 cell line screen, 48 h
BT-549 breast = system: BT-549 breast
HS 578T breast = system: HS 578T breast
MDA-MB-435 = system: MDA-MB-435
NCI-H226 lung = system: NCI-H226 lung
NCI/ADR-RES ovarian = system: NCI/ADR-RES ovarian
RPMI-8226 leukemia = system: RPMI-8226 leukemia
SNB-75 CNS = system: SNB-75 CNS
T-47D breast = system: T-47D breast

Row | Structure (SMILES) | GI50 (BT-549 breast) | TGI (BT-549 breast) | GI50 (HS 578T breast) | TGI (HS 578T breast) | GI50 (MDA-MB-435) | TGI (MDA-MB-435) | GI50 (NCI-H226 lung) | TGI (NCI-H226 lung) | GI50 (NCI/ADR-RES ovarian) | TGI (NCI/ADR-RES ovarian) | GI50 (RPMI-8226 leukemia) | TGI (RPMI-8226 leukemia) | GI50 (SNB-75 CNS) | TGI (SNB-75 CNS) | GI50 (T-47D breast) | TGI (T-47D breast)
1 | Nc1nccc2c1ccn2-c1ccc(NC(=O)c2ccc(N3CCOCC3)c(C(F)(F)F)c2)cc1 | 1.03 µM | 24.7 µM | 0.22 µM | 0.88 µM | 0.69 µM | 2.99 µM | 5.62 µM | 20 µM | 4.87 µM | 50.9 µM | 0.311 µM | 2.88 µM | 0.246 µM | 1.38 µM | 2.19 µM | 19.2 µM
2 | Ic1ccc(-n2nnnc2-c2cnoc2-c2ccccc2)cc1 |  | 9.49 µM | 42.7 µM | 98.4 µM | 24.5 µM | > 57.5 µM | 43 µM | > 78.9 µM | 33 µM | > 85.2 µM | 22.4 µM | > 64 µM | > 56.8 µM | > 100 µM | 48.8 µM | > 100 µM
3 | Cc1cn2c(/C=C3\C(=O)Nc4ccc(O)cc43)c(-c3ccc(Cl)cc3)nc2s1 | 17.3 µM | 41.5 µM | 21.1 µM | 84.1 µM | 17.6 µM | 88.8 µM | 18.5 µM | 51 µM | 21.5 µM | > 100 µM | 34.5 µM | > 100 µM | 6.27 µM | 23.7 µM | 8.96 µM | 30.2 µM
4 | Cc1nc2cnc(N)c(C#Cc3cncc(C(=O)Nc4ccc(CN5CCN(C)CC5)c(C(F)(F)F)c4)c3)c2nc1C | 2 µM | 11.8 µM | 0.541 µM | 5.66 µM | 0.14 µM | 6 µM | 0.188 µM | 2.61 µM | 7.56 µM | 23.8 µM | 1.65 µM | 8.51 µM | 1.35 µM | 3.39 µM | 3.35 µM | 26 µM
5 | COc1cccc2c1C(=O)c1c(O)c3c(c(O)c1C2=O)CC(O)(/C(C)=N/NC(=O)CCC(=O)N/N=C(\C)C1(O)Cc2c(O)c4c(c(O)c2C(OC2CC(N)C(O)C(C)O2)C1)C(=O)c1c(OC)cccc1C4=O)CC3OC1CC(N)C(O)C(C)O1 (centres undefined) | 0.671 µM | 2.27 µM | 0.261 µM | 2.3 µM | 0.552 µM | 3.29 µM | 0.324 µM | 1.39 µM | 13.5 µM | > 50 µM | 0.209 µM | 4.17 µM | 0.222 µM | 2.01 µM | 0.172 µM | 1.68 µM
6 | COc1cc(CNCCCN2C(=O)c3ccc4c5c(ccc(c35)C2=O)C(=O)N(CCCNCc2cc(OC)c(OC)c(OC)c2)C4=O)cc(OC)c1OC | 0.852 µM | 1.77 µM | 1.2 µM | 3.76 µM | 0.367 µM | 1.11 µM | 0.814 µM | 2 µM | 9.16 µM | 39 µM | 0.523 µM | 2.34 µM | 0.589 µM | 1.33 µM | 0.38 µM | 1.12 µM
7 | C1CSCCSCCS1 |  | > 100 µM |  |  |  | > 100 µM |  |  |  | > 100 µM |  | > 100 µM |  | > 100 µM |  | > 100 µM
8 | COc1cc(C2c3cc4c(cc3C(O)C(CO)C2CO)OCO4)cc(OC)c1OC (centres undefined) | 1.92 µM | > 54.9 µM | 0.623 µM |  | 0.197 µM | 0.549 µM | 7.47 µM | > 100 µM | 21.5 µM | > 100 µM | 1.59 µM | > 100 µM | 0.594 µM | > 100 µM |  | > 100 µM
9 | O=C(c1c(F)ccc(NS(=O)(=O)N2CC[C@@H](F)C2)c1F)c1c[nH]c2ncc(-c3cnc(C4CC4)nc3)cc12 | > 8.75 µM and 6.83 µM | > 10 µM and 38.1 µM | 2.33 µM and 2.06 µM | > 10 µM and 15.7 µM | 0.0174 µM and 0.0272 µM | > 10 µM and 23.1 µM | 4.81 µM and 9.14 µM | > 10 µM and 64.6 µM | > 10 µM and 25.2 µM | > 100 µM | 5.59 µM and 5.45 µM | > 10 µM and 42.2 µM | 1.77 µM and 2.17 µM | > 10 µM and 12.8 µM | 2.91 µM and 2.43 µM | > 10 µM and 16.5 µM
10 | CCN1CCN=c2c3cc(OC)ccc3n3cnc4ccc1c2c43 |  |  |  | 0.866 µM |  | 1.31 µM |  | 0.718 µM |  | 0.489 µM |  | 0.558 µM |  | 1.4 µM |  | 3.06 µM
11 | O=C1NC(=S)NNC12c1ccccc1-c1ccccc12 |  | > 10 µM |  | > 10 µM |  |  |  | > 10 µM |  | > 10 µM |  | > 10 µM |  | > 10 µM |  | > 10 µM
12 | CCN(CC)c1nc(-c2ccc(Cl)cc2Cl)nc2ccccc12 | 25.4 µM | 54.1 µM | 8.82 µM | 35.1 µM | 18.7 µM | 48.3 µM | 12.4 µM | 31.2 µM | 23 µM | > 71.1 µM | 32.1 µM | > 100 µM | 43.9 µM | > 100 µM | 18.1 µM | 49.6 µM
13 | Cc1csc(Nc2nc(-c3cccc(Br)c3)nc(C(Cl)(Cl)Cl)n2)n1 | > 100 µM | > 100 µM | 2.94 µM | > 100 µM | 6.07 µM | > 100 µM | > 100 µM | > 100 µM | 5.22 µM | > 100 µM | 2.19 µM | > 100 µM | 1.36 µM | > 27.9 µM | 1.38 µM | > 26.8 µM
14 | COc1ccc(-c2oc(=O)ccc2-c2cc(OC)c(OC)c(OC)c2)cc1F | 19.7 µM | 88.4 µM | 23.9 µM | > 100 µM | 2.13 µM | 6.66 µM | 66.4 µM | > 100 µM | 11 µM | > 100 µM | 11.1 µM | 61.4 µM | 3.33 µM | 36.4 µM | 23.9 µM | > 100 µM
15 | Oc1cc(O)c2c(c1)OC(c1ccc(O)c(O)c1)C(OC1(c3cc(O)c(O)c(O)c3)Oc3cc(O)cc(O)c3C(O)C1O)C2 (centres undefined) |  | > 83.6 µM |  | > 86.1 µM |  | 37.6 µM |  | 50.9 µM |  | 99.9 µM |  | 49.5 µM |  | 60.8 µM |  | > 100 µM
16 | Cc1ccc(-c2nc3ccc([N+](=O)[O-])cc3[nH]2)cc1 |  | > 100 µM |  | > 100 µM |  | > 100 µM |  | > 100 µM |  | > 100 µM |  | > 100 µM |  | > 100 µM |  | > 100 µM
